Columns and labels:
PDE9A isoform b = molecular target: T1, PDE9A isoform b (Homo sapiens, UniProt O76083); experiment: PDE enzyme activity assay (HTRF cGMP), PDE9A; assay type: biochemical; details: recombinant enzyme; read-out: PDE9A inhibition (IC50)
T1 construct: they are full-length with N-terminal GST tag; GST (N); purchased BPS Biosciences 60090; host or cells: baculovirus infected Sf9 cells

HDAC6 = molecular target: T2, HDAC6 (Homo sapiens, UniProt Q9UBN7); experiment: HDAC enzyme activity assay (fluorogenic substrate), HDAC6; assay type: biochemical; details: recombinant enzyme; read-out: HDAC6 inhibition (IC50)
T2 construct: BC069243; Cat. #50006) is full-length with N-terminal GST tag; GST (N); purchased BPS Biosciences 50006; host or cells: baculovirus infected Sf9 cells
T2 sequence (Q9UBN7 1-1215): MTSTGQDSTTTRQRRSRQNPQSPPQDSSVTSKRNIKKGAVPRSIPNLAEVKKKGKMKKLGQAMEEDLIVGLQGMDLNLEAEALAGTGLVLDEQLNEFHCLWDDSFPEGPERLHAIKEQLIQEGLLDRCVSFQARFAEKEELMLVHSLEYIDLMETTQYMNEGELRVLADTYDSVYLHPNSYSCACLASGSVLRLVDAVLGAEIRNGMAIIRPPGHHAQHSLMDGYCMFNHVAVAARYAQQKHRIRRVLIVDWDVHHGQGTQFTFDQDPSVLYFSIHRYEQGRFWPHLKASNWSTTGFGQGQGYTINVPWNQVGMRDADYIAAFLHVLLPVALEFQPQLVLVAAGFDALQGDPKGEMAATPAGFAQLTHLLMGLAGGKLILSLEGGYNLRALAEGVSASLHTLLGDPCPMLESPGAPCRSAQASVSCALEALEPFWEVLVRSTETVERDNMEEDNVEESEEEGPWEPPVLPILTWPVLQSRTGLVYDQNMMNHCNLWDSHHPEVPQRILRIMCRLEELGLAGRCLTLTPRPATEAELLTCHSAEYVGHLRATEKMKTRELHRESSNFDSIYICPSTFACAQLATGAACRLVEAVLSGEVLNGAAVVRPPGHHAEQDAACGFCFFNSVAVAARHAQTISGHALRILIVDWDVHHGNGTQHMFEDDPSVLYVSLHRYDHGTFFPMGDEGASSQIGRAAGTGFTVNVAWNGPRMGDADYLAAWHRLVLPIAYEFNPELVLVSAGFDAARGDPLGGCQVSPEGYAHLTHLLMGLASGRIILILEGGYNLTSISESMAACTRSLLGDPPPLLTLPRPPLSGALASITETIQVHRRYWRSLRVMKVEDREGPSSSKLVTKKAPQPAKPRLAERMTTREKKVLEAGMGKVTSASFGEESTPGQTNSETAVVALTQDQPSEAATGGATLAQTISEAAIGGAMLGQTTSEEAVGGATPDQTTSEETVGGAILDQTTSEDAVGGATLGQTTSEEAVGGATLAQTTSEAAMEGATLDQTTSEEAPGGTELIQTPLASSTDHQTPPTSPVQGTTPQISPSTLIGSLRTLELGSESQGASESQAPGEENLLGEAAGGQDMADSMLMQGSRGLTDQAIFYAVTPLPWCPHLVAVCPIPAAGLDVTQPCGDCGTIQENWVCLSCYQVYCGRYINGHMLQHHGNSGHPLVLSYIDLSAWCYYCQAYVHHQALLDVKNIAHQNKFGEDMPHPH

HDAC2 = molecular target: T3, HDAC2 (Homo sapiens, UniProt Q92769); experiment: HDAC enzyme activity assay (fluorogenic substrate), HDAC2; assay type: biochemical; details: recombinant enzyme; read-out: HDAC2 inhibition (IC50)
T3 construct: NM_001527; Cat. #50002) is full-length with C-terminal his tag; His (C); purchased BPS Biosciences 50002; host or cells: baculovirus infected Sf9 cells
T3 sequence (Q92769 whole entry): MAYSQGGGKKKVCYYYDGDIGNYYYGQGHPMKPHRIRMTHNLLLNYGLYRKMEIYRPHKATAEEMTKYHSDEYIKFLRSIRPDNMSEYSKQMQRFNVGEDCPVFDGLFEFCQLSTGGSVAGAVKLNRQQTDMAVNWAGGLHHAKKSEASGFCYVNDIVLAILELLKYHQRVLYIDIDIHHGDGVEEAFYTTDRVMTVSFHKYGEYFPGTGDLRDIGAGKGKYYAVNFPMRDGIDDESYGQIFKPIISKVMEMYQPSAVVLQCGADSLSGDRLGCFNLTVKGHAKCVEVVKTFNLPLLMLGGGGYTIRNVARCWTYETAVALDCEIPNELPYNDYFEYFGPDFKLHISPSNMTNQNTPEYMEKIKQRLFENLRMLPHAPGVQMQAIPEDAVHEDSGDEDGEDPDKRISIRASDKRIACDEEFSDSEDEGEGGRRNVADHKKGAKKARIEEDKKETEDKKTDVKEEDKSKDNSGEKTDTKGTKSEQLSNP

HDAC1 = HDAC1 (Homo sapiens, UniProt Q13547); experiment: HDAC enzyme activity assay (fluorogenic substrate), HDAC1; assay type: biochemical; details: recombinant enzyme; read-out: HDAC1 inhibition (IC50)
HDAC1, sequence (Q13547 whole entry): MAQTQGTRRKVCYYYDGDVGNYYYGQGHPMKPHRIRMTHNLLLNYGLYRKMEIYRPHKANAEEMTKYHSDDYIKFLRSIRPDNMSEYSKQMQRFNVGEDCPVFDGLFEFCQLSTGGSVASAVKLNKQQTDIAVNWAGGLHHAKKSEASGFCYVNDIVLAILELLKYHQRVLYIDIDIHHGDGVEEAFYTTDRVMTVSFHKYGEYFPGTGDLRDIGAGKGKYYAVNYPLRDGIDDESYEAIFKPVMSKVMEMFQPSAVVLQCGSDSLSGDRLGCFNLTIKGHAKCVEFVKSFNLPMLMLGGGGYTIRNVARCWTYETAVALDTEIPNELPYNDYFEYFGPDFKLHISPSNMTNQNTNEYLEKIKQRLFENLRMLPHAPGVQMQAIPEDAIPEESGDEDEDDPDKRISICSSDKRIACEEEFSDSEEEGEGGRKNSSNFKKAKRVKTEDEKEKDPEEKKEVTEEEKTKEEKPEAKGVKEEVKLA

PDE5A = molecular target: T4, PDE5A (Homo sapiens, UniProt O76074); experiment: PDE enzyme activity assay (HTRF cGMP), PDE5A; assay type: biochemical; details: recombinant enzyme; read-out: PDE5A1 inhibition (IC50)
T4 construct: they are full-length with N-terminal GST tag; GST (N); purchased BPS Biosciences 60050; host or cells: baculovirus infected Sf9 cells

HDAC3 = molecular target: T5, HDAC3 (Homo sapiens, UniProt O15379); experiment: HDAC enzyme activity assay (fluorogenic substrate), HDAC3; assay type: biochemical; details: recombinant enzyme; read-out: HDAC3 inhibition (IC50)
T5 construct: is full-length with C-terminal his tag and human NCOR2, N-terminal GST tag; His (C); purchased BPS Biosciences 50003; host or cells: baculovirus infected Sf9 cells
T5 sequence (O15379 whole entry): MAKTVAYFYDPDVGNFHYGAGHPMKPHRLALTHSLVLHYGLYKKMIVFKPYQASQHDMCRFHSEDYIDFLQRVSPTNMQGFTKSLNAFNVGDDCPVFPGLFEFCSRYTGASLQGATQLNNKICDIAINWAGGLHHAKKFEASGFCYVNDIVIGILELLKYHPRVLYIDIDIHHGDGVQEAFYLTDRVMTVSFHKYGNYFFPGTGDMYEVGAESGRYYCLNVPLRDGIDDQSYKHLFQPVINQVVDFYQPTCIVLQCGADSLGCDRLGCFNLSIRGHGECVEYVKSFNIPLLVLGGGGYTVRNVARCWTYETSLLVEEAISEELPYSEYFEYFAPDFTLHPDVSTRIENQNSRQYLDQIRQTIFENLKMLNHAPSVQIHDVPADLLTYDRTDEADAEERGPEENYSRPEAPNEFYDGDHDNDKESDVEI
T5 sequence (Q9Y618 395-489 partner limits assumed): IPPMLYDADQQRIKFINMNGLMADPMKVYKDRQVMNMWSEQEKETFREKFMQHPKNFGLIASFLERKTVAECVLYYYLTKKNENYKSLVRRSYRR

pCREB = experiment: PDE activity in wild type primary neurons (Western blot pCREB); assay type: cell-based; details: Mus musculus, Neuron, 0.5 h, 30 min, EC50 = 50% increase in pCREB over basal
[1] = tested on: acetylated histone 3 at Lys9 (AcH3K9); experiment: HDAC activity in wild type primary neurons (Western blot AcH3K9); assay type: cell-based, mouse; details: Mus musculus, Neuron, 0.5 h, 30 min, EC50 = 50% increase in AcH3K9 over basal, read-out: AcH3 (EC50)

T1 sequence (O76083 1-533 isoform O76083-2): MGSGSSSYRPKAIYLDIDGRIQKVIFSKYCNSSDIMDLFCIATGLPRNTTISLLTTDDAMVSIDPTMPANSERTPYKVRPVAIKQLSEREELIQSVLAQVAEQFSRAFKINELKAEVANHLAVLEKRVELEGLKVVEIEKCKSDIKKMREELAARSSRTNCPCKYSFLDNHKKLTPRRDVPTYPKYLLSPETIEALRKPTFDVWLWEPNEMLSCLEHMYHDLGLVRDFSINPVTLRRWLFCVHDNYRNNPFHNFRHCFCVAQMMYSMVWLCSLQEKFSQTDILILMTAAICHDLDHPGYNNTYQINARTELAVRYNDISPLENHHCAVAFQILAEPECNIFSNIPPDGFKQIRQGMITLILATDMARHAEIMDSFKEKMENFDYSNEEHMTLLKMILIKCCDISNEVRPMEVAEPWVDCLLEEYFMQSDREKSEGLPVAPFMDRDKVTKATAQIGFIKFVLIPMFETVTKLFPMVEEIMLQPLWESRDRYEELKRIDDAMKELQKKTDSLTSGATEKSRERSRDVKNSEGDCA

| Compound | IC50 (PDE9A isoform b) | IC50 (HDAC6) | IC50 (HDAC2) | IC50 (HDAC1) | IC50 (PDE5A) | IC50 (HDAC3) | EC50 (pCREB) | EC50 [1] |
| --- | --- | --- | --- | --- | --- | --- | --- | --- |
| CCCc1nn(C)c2c(=O)[nH]c(-c3cc(S(=O)(=O)Nc4ccc(/C=C/C(=O)NO)cc4)ccc3OCC)nc12 [Example 1-03] | 1000 to 10000 nM |  | 10 to 1000 nM | 10 to 1000 nM | < 10 nM |  |  |  |
| CCCc1nn(C)c2c(=O)[nH]c(-c3cc(Cc4ccc(C(=O)NO)o4)ccc3OCC)nc12 [Example 1-17] |  | 10 to 1000 nM | > 10000 nM | 1000 to 10000 nM | < 10 nM | > 10000 nM |  |  |
| CCCc1nn(C)c2c(=O)[nH]c(-c3cc(Cc4ccc(CC(=O)NO)cc4)ccc3OCC)nc12 [Example 1-18] |  | 10 to 1000 nM | > 10000 nM | > 10000 nM | 10 to 1000 nM | > 10000 nM |  |  |
| CCCc1nn(C)c2c(=O)[nH]c(-c3cc(NC4CCN(c5ncc(C(=O)NO)cn5)CC4)ccc3OCC)nc12 [Example 1-22, 2-[4-[4-ethoxy-3-(1-methyl-7-oxo-3-propyl-6H-pyrazolo[4,3-d]pyrimidin-5-yl)anilino]-1-piperidyl]pyrimidine-5-carbohydroxamic acid] |  | 10 to 1000 nM | 10 to 1000 nM | 10 to 1000 nM | < 10 nM | 10 to 1000 nM |  |  |
| CCCc1nn(C)c2c(=O)[nH]c(-c3cc(CC4CCC(C(=O)NO)CC4)ccc3OCC)nc12 (centres unmarked) [Example 1-29, 4-[[4-ethoxy-3-(1-methyl-7-oxo-3-propyl-6H-pyrazolo[4,3-d]pyrimidin-5-yl)phenyl]methyl]cyclohexanecarbohydroxamic acid] |  | 10 to 1000 nM | > 10000 nM | 10 to 1000 nM | 10 to 1000 nM |  | 1000 to 10000 nM | 1000 to 10000 nM |
| CCCc1nn(C)c2c(=O)[nH]c(-c3cc(-c4ccc(C(=O)NO)cc4)ccc3OCC)nc12 [Example 1-30] |  | 10 to 1000 nM | 1000 to 10000 nM | 10 to 1000 nM | < 10 nM |  | 10 to 1000 nM | 10 to 1000 nM |
| CCCc1nn(C)c2c(=O)[nH]c(-c3cc(C4CCC(C(=O)NO)CC4)ccc3OCC)nc12 (centres unmarked) [Example 1-40, 4-[4-ethoxy-3-(1-methyl-7-oxo-3-propyl-6H-pyrazolo[4,3-d]pyrimidin-5-yl)phenyl]cyclohexanecarbohydroxamic acid] |  | 10 to 1000 nM | > 10000 nM | 1000 to 10000 nM | 10 to 1000 nM |  | 1000 to 10000 nM | 10 to 1000 nM |
| CCCc1nn(C)c2c(=O)[nH]c(-c3cc(CN4CCN(c5ncc(C(=O)NO)cn5)CC4)ccc3OCC)nc12 [Example 1-48, 2-[4-[[4-ethoxy-3-(1-methyl-7-oxo-3-propyl-6H-pyrazolo[4,3-d]pyrimidin-5-yl)phenyl]methyl]piperazin-1-yl]pyrimidine-5-carbohydroxamic acid] |  | 10 to 1000 nM | 10 to 1000 nM | 10 to 1000 nM | < 10 nM |  | 10 to 1000 nM | 10 to 1000 nM |

More lines, now with the values ahead:

| IC50 (PDE9A isoform b) | IC50 (HDAC6) | IC50 (HDAC2) | IC50 (HDAC1) | IC50 (PDE5A) | IC50 (HDAC3) | EC50 (pCREB) | EC50 [1] | Compound |
| --- | --- | --- | --- | --- | --- | --- | --- | --- |
| 10 to 1000 nM | 10 to 1000 nM |  |  |  |  |  |  | C[C@H]1CN(Cc2ccc(C(=O)NO)cc2)C[C@@H]1c1nc2c(cnn2C2CCOCC2)c(=O)[nH]1 (racemic) [Example 3-09, 4-[[(3R,4R)-3-methyl-4-(4-oxo-1-tetrahydropyran-4-yl-5H-pyrazolo[3,4-d]pyrimidin-6-yl)pyrrolidin-1-yl]methyl]benzenecarbohydroxamic acid] |
| 10 to 1000 nM | 10 to 1000 nM |  |  |  |  |  |  | C[C@@H]1CN(Cc2ccc(C(=O)NO)s2)C[C@H]1c1nc2c(cnn2C2CCOCC2)c(=O)[nH]1 (racemic) [Example 3-10] |
| 10 to 1000 nM | 10 to 1000 nM |  |  |  |  |  |  | C[C@@H]1CN(Cc2ccc(C(=O)NO)cc2)C[C@H]1c1nc2c(cnn2C2CCCC2)c(=O)[nH]1 (racemic) [Example 3-11] |
| 10 to 1000 nM | 1000 to 10000 nM | > 10000 nM | 1000 to 10000 nM |  |  |  |  | CC1CN(CC2CC(C(=O)NO)C2)CC1c1nc2c(cnn2C2CCOCC2)c(=O)[nH]1 (racemic) [Example 3-12] |
| < 10 nM | 10 to 1000 nM | 1000 to 10000 nM | 10 to 1000 nM |  |  |  |  | CC1CN(Cc2ccc(C(=O)NO)s2)CC1c1nc2c(cnn2C2CCCC2)c(=O)[nH]1 (racemic) [Example 3-17] |
| 10 to 1000 nM |  |  | 10 to 1000 nM | < 10 nM |  |  |  | CCCc1nc(C)c2c(=O)[nH]c(-c3cc(S(=O)(=O)N4CCN(CCCC(=O)NO)CC4)ccc3OCC)nn12 [Example 2-02, 4-[4-[4-ethoxy-3-(5-methyl-4-oxo-7-propyl-3H-imidazo[5,1-f][1,2,4]triazin-2-yl)phenyl]sulfonylpiperazin-1-yl]butanehydroxamic acid] |
| 1000 to 10000 nM |  |  | 10 to 1000 nM | < 10 nM |  |  |  | CCCc1nc(C)c2c(=O)[nH]c(-c3cc(S(=O)(=O)Nc4ccc(/C=C/C(=O)NO)cc4)ccc3OCC)nn12 [Example 2-03] |
| > 10000 nM |  |  | < 10 nM | < 10 nM |  |  |  | CCCc1nc(C)c2c(=O)[nH]c(-c3cc(S(=O)(=O)N4CCN(c5ncc(C(=O)NO)cn5)CC4)ccc3OCC)nn12 [Example 2-05] |
|  | 10 to 1000 nM | 1000 to 10000 nM | 10 to 1000 nM | < 10 nM |  | 10 to 1000 nM | 10 to 1000 nM | CCCc1nc(C)c2c(=O)[nH]c(-c3cc(CC4CC(C(=O)NO)C4)ccc3OCC)nn12 (centres unmarked) [Example 2-07, 3-[[4-ethoxy-3-(5-methyl-4-oxo-7-propyl-3H-imidazo[5,1-f][1,2,4]triazin-2-yl)phenyl]methyl]cyclobutanecarbohydroxamic acid] |
| 10 to 1000 nM |  |  | 1000 to 10000 nM | > 10000 nM |  |  |  | CC(c1nc2c(cnn2C2CCOCC2)c(=O)[nH]1)N1CC(Oc2ccc(-c3ccc(C(=O)NO)cc3)cc2)C1 (centres unmarked) [Example 3-03, 4-[4-[1-[1-(4-Oxo-1-tetrahydropyran-4-yl-5H-pyrazolo[3,4-d]pyrimidin-6-yl)ethyl]azetidin-3-yl]oxyphenyl]benzene carbohydroxamic acid] |
| 10 to 1000 nM | 10 to 1000 nM | 1000 to 10000 nM | 10 to 1000 nM |  |  |  |  | CC(c1nc2c(cnn2C2CCOCC2)c(=O)[nH]1)N1CC(Oc2ccc(C(=O)NO)cc2)C1 (centres unmarked) [Example 3-13] |
| 10 to 1000 nM | 10 to 1000 nM | 1000 to 10000 nM | 1000 to 10000 nM |  |  |  |  | CC(c1nc2c(cnn2C2CCOCC2)c(=O)[nH]1)N1CC(Cc2ccc(C(=O)NO)cc2)C1 (centres unmarked) [Example 3-15] |
| 10 to 1000 nM | 1000 to 10000 nM | 1000 to 10000 nM | 1000 to 10000 nM |  |  |  |  | CC(c1nc2c(cnn2C2CCOCC2)c(=O)[nH]1)N1CC(Cc2ccc(C(=O)NO)s2)C1 (centres unmarked) [Example 3-16] |
| > 10000 nM | 10 to 1000 nM | 10 to 1000 nM | 10 to 1000 nM | 10 to 1000 nM |  |  |  | O=C(NO)c1cnc(N2CCC(CN3CC(=O)N4[C@H](c5ccc6c(c5)OCO6)c5[nH]c6ccccc6c5C[C@@H]4C3=O)CC2)nc1 [Example 4-05] |
